Data reported in patent US20260209202A1, “N-METHYL-4-(QUINOLIN-2-YL)PYRIDIN-2-AMINE COMPOUNDS” (Abbvie Inc., priority 2023, published 2026).

Key:
[1] = molecular target: tau aggregates in globus pallidus and putamen of PSP brains (Homo sapiens, UniProt P10636); test: Homologous (self-) displacement in vitro autoradiography on FF PSP brain sections; assay type: binding; conditions: 3 nM radioligand displaced by corresponding non-radiolabeled compound, mean of three PSP brains, read-out: sdKD (KD determined by means of self-displacement experiments)
Source text: Brain Tissue. Flash-frozen (FF) tissue blocks, and, for some cases, the corresponding mirrored, formalin-fixed, paraffin-embedded (FFPE) tissue blocks from the globus pallidus and putamen of normal or Progressive Supranuclear Palsy (PSP) brains were purchased from Tissue Solutions Ltd (TS; Glasgow, UK). Both FF and FFPE tissue blocks were used to assess the distribution pattern of [3H] Compound (I) and [3H] Compound (II) binding to normal and PSP brain samples by means of in vitro autoradiography. Only FF tissue blocks were used to determine the affinity of [^3H] Compound (I) and [^3H] Compound (II) for PSP brain by means of in vitro autoradiography. […] The plates were read using a Phosphoimager Typhoon™ FLA-70001P (GE Healthcare, Chicago, IL USA). […] Quantitative analysis of the in vitro autoradiography results. Quantitative analysis was performed by computer assisted micro-densitometry (MCD; MCID basic, Interfocus, Devon, UK). […] Identification of the areas of interest was determined by reference to the Atlas of the Human Brain (Mai et al., 2015, Elsevier, ISBN:9780128028018). […]

[2] = tested on: tau aggregates in globus pallidus and putamen of PSP brains; test: In vitro autoradiography of radioligand binding to sections of globus pallidus and putamen from PSP and normal brains; set-up: species or system human
Source text: Brain Tissue. Flash-frozen (FF) tissue blocks, and, for some cases, the corresponding mirrored, formalin-fixed, paraffin-embedded (FFPE) tissue blocks from the globus pallidus and putamen of normal or Progressive Supranuclear Palsy (PSP) brains were purchased from Tissue Solutions Ltd (TS; Glasgow, UK). Both FF and FFPE tissue blocks were used to assess the distribution pattern of [3H] Compound (I) and [3H] Compound (II) binding to normal and PSP brain samples by means of in vitro autoradiography. Only FF tissue blocks were used to determine the affinity of [^3H] Compound (I) and [^3H] Compound (II) for PSP brain by means of in vitro autoradiography. […]
In vitro autoradiography. […] The plates were read using a Phosphoimager Typhoon™ FLA-70001P (GE Healthcare, Chicago, IL USA). […]
Quantitative analysis of the in vitro autoradiography results. Quantitative analysis was performed by computer assisted micro-densitometry (MCD; MCID basic, Interfocus, Devon, UK). […] Identification of the areas of interest was determined by reference to the Atlas of the Human Brain (Mai et al., 2015, Elsevier, ISBN:9780128028018). […]

[3] = PET imaging in cynomolgus macaques, baseline and homologous self-block; assay type: in vivo; conditions: for off-target binding in brain: healthy cynomolgus macaques; for blood brain barrier crossing / brain uptake and clearance: intravenous radiotracer
Procedure: PET imaging procedures in cynomolgus macaques were performed under the guidelines of the Institutional Animal Care and Use Committee. Anesthesia was maintained using isoflurane gas maintained at 1.25-3.0% for the duration of the imaging procedures. Prior to PET imaging, a head computed tomography (CT) was acquired using a Neurologica CereTom® CT system (Neurologica, Danvers, MA, USA) which was used for localization of the animal in the PET system, and later for attenuation correction of the PET data.
The radiotracer was administered as a bolus injection (3 mL over 2 minutes), and data collected in dynamic list mode emission acquisition was initiated using a Siemens Concorde microPET® Focus™ 220 (Siemens USA, Washington DC, USA) for 120 minutes. Arterial blood samples were acquired throughout the PET acquisition to measure radioactivity in whole blood and plasma and to assess the % parent and metabolite(s) for generation of an input function for kinetic modeling analysis. The whole blood arterial samples were acquired, initially rapidly (every 30 seconds) and decreased in frequency towards the end of the PET acquisition to every 30 minutes. Arterial whole blood samples were counted in a well counter (PerkinElmer Wizard® 1470; PerkinElmer, Waltham, MA, USA) for radioactivity concentration. Samples were then centrifuged (3000 RCF for 5 minutes) to allow extraction of plasma which was subsequently counted for radioactivity concentration. To determine the proportion of unchanged radiotracer, selected plasma samples (1, 2, 3, 4, 7, 9, 15, 20, 40, 60, 90, and 120 minutes) were extracted with equal volumes of acetonitrile, then injected onto a Dionex/Thermo Ultimate 3000 radio-HPLC system (ThermoFisher, Waltham, MA, USA) consisting of a Phenomenex® Onyx™ C18 10×100 mm column (Torrance, CA, USA), an Eckert and Ziegler coincidence BGO radiodetector (model B-FC-4100, Eckert and Ziegler, Atlanta, GA, USA) and a mobile phase of (A) 10 mM ammonium acetate and (B) acetonitrile. The conditions for [^18F] Compound (I) are: 0-2.5 min, 95% A at 4 mL/min; 2.5-2.6 min, 95% A to 50% A at 4 mL/min to 3 mL/min; 2.6-10 min, 50% A at 3 mL/min; 10-10.1 min, 50% A to 95% A at 3 mL/min to 4 mL/min; 10.1-13 min, 95% A at 4 mL/min. Retention time for [^18F] Compound (I) was 8.4 min. The conditions for [^18F] Compound (II) are: 0-2.5 min, 95% A at 4 mL/min; 2.5-2.6 min, 95% A to 65% A at 4 mL/min to 3 mL/min; 2.6-10 min, 65% A at 3 mL/min; 10-10.1 min, 65% A to 95% A at 3 mL/min to 4 mL/min; 10.1-13 min, 95% A at 4 mL/min. Retention time for [^18F] Compound (II) was 9.3 min. Arterial sampling data was used to generate the input function for kinetic modeling. Potential off-target specific binding in the brain was evaluated for each lead radiotracer using a pre-dosing paradigm in which PET was performed after administration of a 1 mg/kg homologous dose of the non-radioactive tracer over a 15-minute infusion 20 minutes prior to radiotracer injection.
Upon the completion of PET image acquisition, anesthesia was terminated, primates were monitored until fully alert, then transported to their cages. In addition to PET imaging, each primate underwent separate MRI imaging (GE Discovery™ 3T MR750 MRI scanner and GE Signa™ HDxt 1.5T MRI scanner, GE Healthcare, Chicago, IL, USA) for acquisition of a structural T1w image for purposes of co-registration and transformation to a standard atlas space. The PET data analysis was performed, and images were reconstructed using Siemens MicroPET® Manager and AsiPro (Siemens) software. PET list mode data was binned into sinograms with time frames of 6×30 seconds, 3×1 minutes, 2×2 minutes, 22×5 minutes. Images were reconstructed using filtered back projection using a Hanning filter with a 0.5 cycles/pixel cutoff. Corrections for attenuation (using the acquired CT), scatter, and deadtime correction were applied. Furthermore, the dynamic images were decay-corrected to start of PET acquisition, which coincided with the radiotracer injection. […]

Sequence of tau aggregates in globus pallidus and putamen of PSP brains (Homo sapiens, UniProt P10636) (P10636 with tags, fused parts or gaps): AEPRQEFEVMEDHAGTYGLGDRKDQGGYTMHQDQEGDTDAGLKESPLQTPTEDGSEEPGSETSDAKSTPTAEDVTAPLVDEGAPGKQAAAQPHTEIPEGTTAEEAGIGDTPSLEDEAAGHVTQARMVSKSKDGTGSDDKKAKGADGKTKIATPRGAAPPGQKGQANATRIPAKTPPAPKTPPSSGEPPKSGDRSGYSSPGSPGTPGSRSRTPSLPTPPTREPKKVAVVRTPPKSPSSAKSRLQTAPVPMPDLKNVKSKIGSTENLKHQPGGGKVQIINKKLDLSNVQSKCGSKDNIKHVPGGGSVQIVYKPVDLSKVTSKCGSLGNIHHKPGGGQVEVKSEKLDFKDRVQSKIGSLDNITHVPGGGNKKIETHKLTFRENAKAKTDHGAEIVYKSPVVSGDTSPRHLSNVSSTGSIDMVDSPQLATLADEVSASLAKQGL

Compound | Kd [1] [nM] | amount of radioligand bound to the tissue, PSP brains versus normal brains ([2]; 3 nM radioligand, grey matter of FF globus pallidus and putamen sections) [times] | selectivity for tau aggregates in PSP affected brain tissue as compared to healthy brain tissue ([2]; globus pallidus and putamen) | off-target binding in brain [3] | relative brain uptake among the tracers ([3]; initial brain SUV after injection) | blood brain barrier crossing [3] | brain uptake and clearance [3]
CNc1cc(-c2ccc3cc(OCCOC)cc(F)c3n2)ccn1 [[^3H] Compound (I)] [4-[8-fluoro-6-(2-methoxyethoxy)quinolin-2-yl]-N—(^3H3)methylpyridin-2-amine] | 12.4 | – | – | – | – | – | –
[3H]C([3H])([3H])Nc1cc(-c2ccc3cc(OCCOC)cc(F)c3n2)ccn1 [[^3H] Compound (I)] [4-[8-fluoro-6-(2-methoxyethoxy)quinolin-2-yl]-N—(^3H3)methylpyridin-2-amine] | – | 2.1 | high degree of selectivity | – | – | – | –
CNc1cc(-c2ccc3cc(OCCOC)cc([18F])c3n2)ccn1 [[^18F] Compound (I), 4-[8-(^18F)fluoro-6-(2-methoxyethoxy)quinolin-2-yl]-N-methylpyridin-2-amine] | – | – | – | did not show significant off-target binding | highest uptake | ability to cross the blood brain barrier | rapid uptake and rapid clearance
CNc1cc(-c2ccc3cc(N4CC(O)(C[18F])C4)ccc3n2)ccn1 [[^18F] Compound (II), 3-[(^18F)fluoromethyl]-1-{2-[2-(methylamino)pyridin-4-yl]quinolin-6-yl}azetidin-3-ol] | – | – | – | did not show significant off-target binding | – | ability to cross the blood brain barrier | rapid uptake and rapid clearance
